Laboratory results published in patent publication US20220290105A1, “MESENCHYMAL STEM CELLS WITH ENHANCED THERAPEUTIC PROPERTIES” (CELLS FOR CELLS S.A., priority 2019, published 2022).
Entries after “also recorded” stand apart in the source; their conditions may differ. Read-outs that look alike come from different tables or passages of the source.

Legend:
GVHD mice = assay: In vivo model of graft versus host disease (GVHD), Kaplan-Meier survival (FIG. 9); conditions: UC-MSCs pre-treated or not with oligomycin
Excerpt: FIG. 9. […] A) Experimental design of the in vivo model of GVHD. B) Kaplan-Meier plot showing the survival rate of GVHD mice compared to UC-MSCs that were pre-treated or not with oligomycin. N=15 mice per experimental group performed at least 2 times independently—* p<0.05.

UC-MSCs [1] = assay: Metabolic status (OCR, ECAR, lactate efflux) and surface markers of treated MSCs (FIG. 4); assay type: cell-based
Excerpt: FIG. 4. […] (A) MSCs treated with ATP-Synthase inhibitors show a diminished oxidative phosphorylation, quantified as oxygen consumption rate (OCR), (B) and an enhanced glycolysis, shown as extracellular acidification rate (ECAR).
In order to determine the efficiency of MSCs treated with ATP-synthase inhibitors, the inventors first evaluated the glycolytic status of UC-MSCs using biochemical parameters such as lactate production and glucose consumption and also if possible, the metabolic status of MSCs treated with ATP-synthase inhibitors was evaluated in real time by measuring the oxygen consumption rate (OCR) or the extra cellular acidification rate (ECAR) by the Seahorse™ technology. Moreover, different functional assays were carried out in order to compare the efficacy of MSCs treated with ATP-synthase inhibitors as compared to non-treated UC-MSCs including evaluation of the differentiation potential towards chondrocytes, viability assays of MSCs, chondroprotection assays, immunosuppression assays and in vivo evaluation using joint inflammation murine models.

UC-MSCs [2] = assay: Transmigration of UC-MSCs through a semipermeable membrane with 8 μM pores (FIG. 11); assay type: cell-based; conditions: quantified at 8 hours and 24 hours; 5% fetal bovine serum in lower chamber
Description: FIG. 11. UC-MSCs pretreated with oligomycin promote their transmigration potential. GlycoStem cells were cultured on a semipermeable membrane with […] diameter pores. Cells were seeded in serum-free medium in the upper chamber, while DMEM medium with 5% fetal bovine serum was added in the lower chamber to induce transmigration of the cells. Cell migration was quantified 8 hours (A and B) and 24 hours (C and D) later. […] N=3 different donors from 3 independent experiments * p<0.05.

UC-MSCs [3] = assay: Chondrogenic differentiation of UC-MSCs: micromass, Aggrecan qPCR, Collagen II vs Collagen I ratio (FIG. 5); assay type: cell-based; conditions: basal media; for ratio of Collagen II vs Collagen I production: compared to MSC in basal media (CTL)
Excerpt: FIG. 5. […] UC-MSCs were differentiated towards chondrogenic lineage. […] The relative expression of the proteoglycan Aggrecan, which is typically expressed in hyaline cartilage, was quantified by qPCR. […] When MSC on basal media (CTL) are compared to MSC treated with inhibitors of the ATP-synthase, these treated MSC present chondrogenic behaviour on the ratio of Collagen II vs Collagen I proportion. […] Also, some inhibitors present the same behaviour than MSC in differentiation media (differentiation) (D).

mice with DTH = assay: In vivo model of delayed type hypersensitivity (DTH), paw swelling (FIG. 8); conditions: mice treated with MSCs pre-incubated with or without oligomycin
[4] = system: human mononuclear cells (PBMC); assay: Immunosuppression at different oligomycin pretreatment concentrations, co-culture with human PBMC (FIG. 14); assay type: cell-based; conditions: pretreatment at 0.1 μg/ml, 1 μg/ml and 10 μg/ml; 4 days co-culture
Description: FIG. 14. […] MSC were with different oligomycin concentration (0.1 μg/ml, 1 μg/ml and 10 μg/ml), the media was removed and the cells were washed and cultured with freshly isolated human mononuclear cells (PBMC) that were stained with cell trace violet. Proliferation of CD4+ and CD8+ was quantified after 4 days of co-culturing by flow cytometry and graphed. N=3 PBMC and * p<0.05.
The inventors developed and immunosuppression experiment where the MSCs were pretreated with different concentrations of ATP-Synthase inhibitor, such as Oligomycin, more specifically at 0.1 μg/ml, 1 μg/ml and 10 μg/ml. After the pretreatment, the media with ATP-synthase inhibitor was removed, the MSCs were washed, and the MSC were cultured with freshly isolated human mononuclear cells (PBMC) that were stained with cell trace violet.

murine CD4 = assay: Immunosuppression after 6 or 24 hours pretreatment, co-culture with murine CD4 (FIG. 15); assay type: cell-based; conditions: 3 days co-culture
Description: FIG. 15. […] MSC were treated for 6 and 24 hours oligomycin. Then, the media was removed, the cells were washed and these pretreated MSCs were co-cultured during 3 days with freshly isolated murine CD4 that were stained with cell trace violet. Proliferation of CD4+ was quantified by flow cytometry and graphed. N=4 different mice and * p<0.05.
The inventor developed an incubation experiment were the MSC were treated for 6 and 24 hours with an ATP-Synthase inhibitor, such as Oligomycin. After this treatment, the media with ATP-synthase inhibitor was removed, the MSCs were washed, and the MSCs were co-cultured during 3 days with murine freshly isolated CD4 and their effects were compared.

PBMC = assay: Coculture of human BM-MSCs, UC-MSCs or MenSC with phytohemaglutinine-activated PBMC, T-CD4 and T-CD8 proliferation by FACS (FIG. 12); assay type: cell-based; conditions: BM-MSCs, 1 MSCs:20 PBMCs ratio, 4 days
Description: FIG. 12. […] Human BM-MSCs, UC-MSCs or MenSC were coculture with freshly isolated PBMC activated with phytohemaglutinine in a 1 MSCs:20 PBMCs ratio. After 4 days proliferation was measured by quantifying the decrease in cell fluorescence on either T-CD4 (A) or T-CD8 (B) cells in PBMCs by FACS. Results are represented as mean and SD of 3 independent experiments using at least 3 different PBMC donors and 2 different BM-MSCs, MenSC and UC-MSCs donors. Statistical analyses used the non-parametric Friedman test comparing more than two groups (*, p<0.05; **, p<0.01; ***, p<0.005).

Structure (SMILES) | survival rate of GVHD mice (GVHD mice) | metabolic switch towards glycolytic dependent metabolism (ECAR/OCR ratio) (UC-MSCs [1]) | Surface markers of UC-MSC (UC-MSCs [1]; after metabolic switch) | metabolic switch towards glycolytic dependent metabolism (ECAR/OCR ratio) (UC-MSCs [1]; listed as Oligomycin) | transmigration / migratory capacity (UC-MSCs [2]) | ratio of Collagen II vs Collagen I production (UC-MSCs [3]) | relative expression of the proteoglycan Aggrecan (qPCR) (UC-MSCs [3]; compared to untreated control) | generation of three-dimensional tissue (micromass) / spontaneous differentiation into chondrocytes (UC-MSCs [3]; no differentiation media, 24Hrs pre-treatment) | limb swelling (Paw Swelling) / inflammation in DTH (mice with DTH) | suppressive activity (proliferation of CD4+ and CD8+) [4] | suppressive activity (proliferation of CD4+) (murine CD4; 6 hours pretreatment) | suppressive activity (proliferation of CD4+) (murine CD4; 24 hours pretreatment) | immunosuppressive abilities of human MSCs (T-CD4 and T-CD8 proliferation) (PBMC)
CC[C@H]1/C=C/C=C/C[C@@H](C)[C@H](O)[C@@](C)(O)C(=O)[C@@H](C)[C@H](O)[C@@H](C)C(=O)[C@@H](C)[C@H](O)[C@@H](C)/C=C/C(=O)O[C@@H]2[C@H](C)[C@H](CC1)O[C@]1(CC[C@H](C)[C@H](C[C@@H](C)O)O1)[C@H]2C [oligomycin, Oligomycin] | increases the survival rate | inducing a strongly glycolytic-dependent metabolism | not affected | induces a glycolytic dependent metabolism | significantly increase their migratory capacity | fold change in the production of collagen type 2 versus collagen type 1 | increased relative expression; also recorded: increase in the relative expression | even greater than the three-dimensional tissue obtained by using the differentiation media alone; also recorded: spontaneously differentiate into chondrocytes; also recorded: stimulates the spontaneous differentiation towards a functional three-dimensional cartilage | increases the therapeutic potential of MSCs | enhanced suppressive activity that is dose dependent | enhanced the suppressive activity of MSCs | enhanced suppressive activity; also recorded: highest enhancement of the MSCs suppression activity | enhances the immunosuppressive abilities of human MSCs independent on the origin
Oc1ccc(C=Cc2cc(O)cc(O)c2)cc1 [resveratrol, Resveratrol] |  |  |  |  |  | fold change in the production of collagen type 2 versus collagen type 1; also recorded: promote the MSC in basal media to behave as MSC that are in a differentiation media |  |  |  |  |  |  | 
